The values below come from patent publication US20250262201A1, “COMPOUNDS AND METHODS USEFUL FOR STABILIZING PHENYLALANINE HYDROXYLASE MUTATIONS” (Agios Pharmaceuticals, Inc., priority 2022, published 2025).

SMILES strings stand for the structures. Where only a bound is given, the exact number is not on record here.

In the assay the target is T1, human PAH with the R408W mutation (Homo sapiens, UniProt P00439, R408W).
T1 construct: expressed in transfected cells
T1 sequence (P00439 1-452 R408W): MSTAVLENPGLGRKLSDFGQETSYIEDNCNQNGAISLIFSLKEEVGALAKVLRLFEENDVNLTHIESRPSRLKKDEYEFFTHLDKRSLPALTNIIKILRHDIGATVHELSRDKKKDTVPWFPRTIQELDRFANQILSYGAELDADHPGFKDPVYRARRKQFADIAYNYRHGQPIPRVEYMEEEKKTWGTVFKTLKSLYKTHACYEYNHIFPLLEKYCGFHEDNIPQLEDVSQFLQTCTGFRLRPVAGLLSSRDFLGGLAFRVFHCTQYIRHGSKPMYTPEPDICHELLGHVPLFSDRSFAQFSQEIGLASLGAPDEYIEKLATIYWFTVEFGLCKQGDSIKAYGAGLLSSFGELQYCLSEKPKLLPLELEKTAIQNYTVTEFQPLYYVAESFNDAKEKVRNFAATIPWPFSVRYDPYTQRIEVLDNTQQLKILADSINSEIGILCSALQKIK
Briefly: Cell Based Phenylalanine Flux Assay. The note with it: A375 cells expressing human R408W PAH; 24 hrs compound incubation; 13C-Tyrosine by LC-MS; average where tested multiple times; read-out: AC50.
With `Cc1nc(-c2ccccn2)oc1C(=O)N1CCc2[nH]cnc2[C@@H]1c1ncc2ccccc2n1` [Example 194, (R)-(4-methyl-2-(pyridin-2-yl)oxazol-5-yl)(4-(quinazolin-2-yl)-6,7-dihydro-1H-imidazo[4,5-c]pyridin-5(4H)-yl)methanone], the AC50 (as a rule, the midpoint of the concentration-response curve, whichever way the signal moves) was in the range of 1 to 5 µM.
Next, `O=C(c1nnc(-c2ccc(OC(F)(F)F)cn2)o1)N1CCc2[nH]cnc2[C@H]1c1ncc2ccccc2n1` [Example 195, (S)-(4-(quinazolin-2-yl)-6,7-dihydro-1H-imidazo[4,5-c]pyridin-5(4H)-yl)(5-(5-(trifluoromethoxy)pyridin-2-yl)-1,3,4-oxadiazol-2-yl)methanone]: under 0.5 µM.
As for `O=C(c1nnc(-c2ccc(OC(F)(F)F)cn2)o1)N1CCc2[nH]cnc2[C@@H]1c1ncc2ccccc2n1` [Example 196, (R)-(4-(quinazolin-2-yl)-6,7-dihydro-1H-imidazo[4,5-c]pyridin-5(4H)-yl)(5-(5-(trifluoromethoxy)pyridin-2-yl)-1,3,4-oxadiazol-2-yl)methanone], the half-maximal activity concentration (AC50) was over 5 µM.
For `Cn1cnc(-c2nnc(C(=O)N3CCc4[nH]cnc4[C@H]3c3ncc4ccccc4n3)o2)c1` [Example 197, (S)-(5-(1-methyl-1H-imidazol-4-yl)-1,3,4-oxadiazol-2-yl)(4-(quinazolin-2-yl)-6,7-dihydro-1H-imidazo[4,5-c]pyridin-5(4H)-yl)methanone] the value was 0.5 to 1 µM.
Next, `Cc1nn(C)cc1-c1nnc(C(=O)N2CCc3[nH]cnc3[C@@H]2c2ncc3ccccc3n2)o1` [Example 199, (R)-(5-(1,3-dimethyl-1H-pyrazol-4-yl)-1,3,4-oxadiazol-2-yl)(4-(quinazolin-2-yl)-6,7-dihydro-1H-imidazo[4,5-c]pyridin-5(4H)-yl)methanone]: over 5 µM.
Next, `Cc1nn(C)cc1-c1nnc(C(=O)N2CCc3[nH]cnc3[C@H]2c2ncc3ccccc3n2)o1` [Example 200, (S)-(5-(1,3-dimethyl-1H-pyrazol-4-yl)-1,3,4-oxadiazol-2-yl)(4-(quinazolin-2-yl)-6,7-dihydro-1H-imidazo[4,5-c]pyridin-5(4H)-yl)methanone]: under 0.5 µM; `CC(C)(C)c1nnc(C(=O)N2CCc3[nH]cnc3[C@H]2c2ncc3ccccc3n2)o1` [Example 201, (S)-(5-(tert-butyl)-1,3,4-oxadiazol-2-yl)(4-(quinazolin-2-yl)-6,7-dihydro-1H-imidazo[4,5-c]pyridin-5(4H)-yl)methanone]: under 0.5 µM.
`CC(C)(C)c1nnc(C(=O)N2CCc3[nH]cnc3[C@@H]2c2ncc3ccccc3n2)o1` [Example 202, (R)-(5-(tert-butyl)-1,3,4-oxadiazol-2-yl)(4-(quinazolin-2-yl)-6,7-dihydro-1H-imidazo[4,5-c]pyridin-5(4H)-yl)methanone]: the half-maximal activity concentration (AC50) is over 5 µM.
Next, `Cn1nccc1-c1nnc(C(=O)N2CCc3[nH]cnc3[C@H]2c2ncc3ccccc3n2)o1` [Example 203, (S)-(5-(1-methyl-1H-pyrazol-5-yl)-1,3,4-oxadiazol-2-yl)(4-(quinazolin-2-yl)-6,7-dihydro-1H-imidazo[4,5-c]pyridin-5(4H)-yl)methanone]: under 0.5 µM; `Cn1nccc1-c1nnc(C(=O)N2CCc3[nH]cnc3[C@@H]2c2ncc3ccccc3n2)o1` [Example 204, (R)-(5-(1-methyl-1H-pyrazol-5-yl)-1,3,4-oxadiazol-2-yl)(4-(quinazolin-2-yl)-6,7-dihydro-1H-imidazo[4,5-c]pyridin-5(4H)-yl)methanone]: 1 to 5 µM; `O=C(c1cnc(-c2ccccn2)s1)N1CCc2[nH]cnc2[C@H]1c1cc2ccccc2nn1` [Example 205, (S)-(4-(cinnolin-3-yl)-6,7-dihydro-1H-imidazo[4,5-c]pyridin-5(4H)-yl)(2-(pyridin-2-yl)thiazol-5-yl)methanone]: 0.5 to 1 µM.
For `O=C(c1cnc(-c2ccccn2)s1)N1CCc2[nH]cnc2[C@@H]1c1cc2ccccc2nn1` [Example 206, (R)-(4-(cinnolin-3-yl)-6,7-dihydro-1H-imidazo[4,5-c]pyridin-5(4H)-yl)(2-(pyridin-2-yl)thiazol-5-yl)methanone] the value was 1 to 5 µM; for `Cc1nc(-c2ccccn2)oc1C(=O)N1CCc2[nH]cnc2[C@@H]1c1cc2ccccc2nn1` [Example 207], over 5 µM.
For `Cc1nc(-c2ccccn2)oc1C(=O)N1CCc2[nH]cnc2[C@H]1c1cc2ccccc2nn1` [Example 208, (S)-(4-(cinnolin-3-yl)-6,7-dihydro-1H-imidazo[4,5-c]pyridin-5(4H)-yl)(4-methyl-2-(pyridin-2-yl)oxazol-5-yl)methanone] the value was 0.5 to 1 µM; for `CC(C)(O)c1nc(C(F)F)c(C(=O)N2CCc3[nH]cnc3[C@H]2c2cc3ccccc3nn2)o1` [Example 209, (S)-(4-(cinnolin-3-yl)-6,7-dihydro-1H-imidazo[4,5-c]pyridin-5(4H)-yl)(4-(difluoromethyl)-2-(2-hydroxypropan-2-yl)oxazol-5-yl)methanone], under 0.5 µM; for `CC(C)(O)c1nc(C(F)F)c(C(=O)N2CCc3[nH]cnc3[C@@H]2c2cc3ccccc3nn2)o1` [Example 210, (R)-(4-(cinnolin-3-yl)-6,7-dihydro-1H-imidazo[4,5-c]pyridin-5(4H)-yl)(4-(difluoromethyl)-2-(2-hydroxypropan-2-yl)oxazol-5-yl)methanone], 1 to 5 µM.
Consider `Cc1ncoc1C(=O)N1CCc2[nH]cnc2[C@H]1c1cc2ccccc2nn1` [Example 211, (S)-(4-(cinnolin-3-yl)-6,7-dihydro-1H-imidazo[4,5-c]pyridin-5(4H)-yl)(4-methyloxazol-5-yl)methanone], for which the concentration at half-maximal activity (AC50) was under 0.5 µM.
For `O=C(c1ccnn1C(F)F)N1CCc2[nH]cnc2[C@H]1c1cc2ccccc2nn1` [Example 213, (S)-(4-(cinnolin-3-yl)-6,7-dihydro-1H-imidazo[4,5-c]pyridin-5(4H)-yl)(1-(difluoromethyl)-1H-pyrazol-5-yl)methanone] the value was under 0.5 µM; for `O=C(c1ccnn1C(F)F)N1CCc2[nH]cnc2[C@@H]1c1cc2ccccc2nn1` [Example 214, (R)-(4-(cinnolin-3-yl)-6,7-dihydro-1H-imidazo[4,5-c]pyridin-5(4H)-yl)(1-(difluoromethyl)-1H-pyrazol-5-yl)methanone], 1 to 5 µM; for `O=C(C1CC1)N1CCc2[nH]cnc2[C@H]1c1cc2ccccc2nn1` [Example 215, (S)-(4-(cinnolin-3-yl)-6,7-dihydro-1H-imidazo[4,5-c]pyridin-5(4H)-yl)(cyclopropyl)methanone], 1 to 5 µM.
As for `O=C(C1CC1)N1CCc2[nH]cnc2[C@@H]1c1cc2ccccc2nn1` [Example 216, (R)-(4-(cinnolin-3-yl)-6,7-dihydro-1H-imidazo[4,5-c]pyridin-5(4H)-yl)(cyclopropyl)methanone], the half-maximal activity concentration (AC50) was in the range of 1 to 5 µM.
Next, `CC(C)(F)c1nnc(C(=O)N2CCc3[nH]cnc3[C@H]2c2cc3ccccc3nn2)o1` [Example 218, (S)-(4-(cinnolin-3-yl)-6,7-dihydro-1H-imidazo[4,5-c]pyridin-5(4H)-yl)(5-(2-fluoropropan-2-yl)-1,3,4-oxadiazol-2-yl)methanone]: 0.5 to 1 µM; `O=C(CCc1nccs1)N1CCc2[nH]cnc2[C@H]1c1ccc2ccccc2c1` [Example 219, (R)-1-(4-(naphthalen-2-yl)-6,7-dihydro-1H-imidazo[4,5-c]pyridin-5(4H)-yl)-3-(thiazol-2-yl)propan-1-one]: 0.5 to 1 µM.
